Legend:
ATAD2 bromodomain = target: T1, ATAD2 bromodomain (Homo sapiens, UniProt Q6PL18); assay: Surface plasmon resonance (SPR) direct binding to ATAD2; conditions: for Kd: SPR format assay, Kd above the top concentration projected by extrapolation (extrapolated Rmax from control compound)
T1 construct: 981-1108; GST (N); made in house; host or cells: Escherichia coli BL21 (DE3) pLysS, plasmid pGEX-6P-1
T1 sequence (Q6PL18 981-1108): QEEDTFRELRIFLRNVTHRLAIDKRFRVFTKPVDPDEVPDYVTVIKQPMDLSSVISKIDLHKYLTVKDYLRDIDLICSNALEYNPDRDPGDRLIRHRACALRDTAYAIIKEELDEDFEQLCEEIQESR
Experimental: (§1) Surface plasmon resonance (SPR) was used to assess the direct binding of the fragments and provide Kd values for binding to both ATAD2 and BRD4. SPR can yield artefactual data where the concentration of a small-molecular analyte exceeds ∼250 μM, and accordingly, this was the highest concentration used in the assays.
(§2) 12.5 μM using an Echo 550 (Labcyte). Each well was backfilled to a final volume of 200 nl (for the […]), resulting in final DMSO concentrations of 2 %. 5 μl of GST-ATAD2 was added to each well and incubated for 30mins resulting in a final concentration of 5 nM.
(§3) 5μl of biotinylated-histone H4 peptide (SGRG-K(Ac)-GG-K(Ac)-GLG-K(Ac)-GGA-K(Ac)- RHRKVGG-K(Biotin)) was then added to each well at a final concentration of 500nM. Both GST-ATAD2 and peptide were diluted in buffer B (50 mM Tris pH 7.5, […], 1 mM DTT, 100 μg/ml bovine serum albumin (BSA)). The plate was then incubated at room temperature for 30mins and then 5 μl LanthaScreen® Tb-anti-GST Antibody (Life Technologies) at final concentration of 5 nM was added to each well and incubated for an additional 30mins. 5 μl of streptavidin-XLL65 (Cisbio Assay) at a final concentration of […] was added to each assay well. Both dyes were diluted in buffer C (50 mM Tris pH 7.5, […], 100 μg/ml BSA). The plate was incubated at room temperature for a further 30mins and then read using a PheraStar FS (BMG Labtech). The data were analysed using Graphpad […]
(§4) 1.4 Surface Plasmon Resonance (SPR).
(§5) SPR-based ligand binding assays were performed using Biacore S200 (GE Healthcare) at 25 °C using single cycle affinity.
(§6) ATAD2N1064A was achieved using standard amine coupling on a CM5 chip surface. The surface was prepared through activation with EDC/NHS, followed by injection of 10 µg/ml of respective proteins until target level 8000 RU was reached. The surface was then quenched using 1 M Ethanolamine and washed with running buffer 10 mM HEPES, 150mM NaCl, 0.01% TWEEN20, 0.5 mM TCEP and 1% DMSO with a flow rate of […]. Compounds were injected in a dose-response manner (8 concentration points ranging from 0-200 µM) in series across the control, ATAD2, BRD4, and ATAD2-N1064A flow cells using solvent correction to account for bulk refractive index changes. The reference control channel was subtracted […]
(§7) from immobilised channels and dose-response data was fitted using a steady state constant Rmax 1:1 binding model, using an extrapolated Rmax determined from a binding control compound in those cases where the extrapolated Kd value was greater than the top concentration used in the experiment (200 µM). K d values are reported to the nearest 100th of micromolar. 1 […]
(§8) Crystallisation was performed at 20 °C using the hanging drop vapor diffusion method.
(§9) Crystals of ATAD2 were grown by mixing 2µl ATAD2 at 7mg/ml and 2µl precipitant containing 0.1 M BIS-TRIS pH 6.5 and 2.0 M ammonium sulfate. Crystals were harvested in a diffusion solution containing 10 mM compound, 5% DMSO, 25 mM HEPES pH 7.5, 75 mM NaCl, 50 mM BIS-TRIS pH 6.5 and 1.0 M Ammonium Sulfate for 48hrs. Prior to data collection the crystals were cryo protected with the addition of 25% (v/v) ethylene glycol to the diffusion solution. X-ray diffraction data were recorded at Diamond Light Source (Harwell, Oxfordshire, UK). Data processing was carried out using XDS, POINTLESS/AIMLESS2 and other programs of the CCP4i suite3 run through the CCP4i2 gui. Structures were solved by molecular replacement using PHASER4 and pdb 3DAI as a starting model. REFMAC5 was employed for refinement, and model building was performed using COOT6. PDBs were deposited within the protein database www.pdb.org using accession codes: 11 XXXX, 15a […]

BRD4 = BRD4 (Homo sapiens, UniProt O60885); assay: Surface plasmon resonance (SPR) direct binding to BRD4; conditions: for Kd: SPR format assay, Kd above the top concentration projected by extrapolation (extrapolated Rmax from control compound); for selectivity between ATAD2 and BRD4, in words: BRD4 versus ATAD2
Experimental: as §1, with “assays. Where the Kd exceeded this limit, projected Kds were determined by extrapolation, using the observed response units for compound binding (RU) relative to the molecular weight of a known control compound.[23]” for “assays.”
as §2, §3, §4, §5, §6, §7, §8, §9

[1] = target: T2, GST-ATAD2 bromodomain / biotinylated acetylated histone H4 peptide (Homo sapiens, UniProt Q6PL18); assay: ATAD2-histone displacement HTRF assay; format: binding; conditions: for ATAD2 inhibition in HTRF, in words: highest concentration assayed 1000 μM; for IC50: HTRF format assay, highest concentration 1000 μM; for ATAD2 LE: Ligand efficiency (LE) = 1.4(–log IC50)/N, N = number of non-hydrogen atoms, from HTRF IC50
T2 construct: 981-1108; made in house; host or cells: Escherichia coli BL21 (DE3) pLysS, plasmid pGEX-6P-1
T2 sequence (Q6PL18 981-1108): T1 sequence (Q6PL18 981-1108)
Experimental: as §1
1.1 Protein Purification.
The ATAD2 bromodomain 981-1108 was expressed with an N-terminal GST fusion from the pGEX-6P-1 plasmid. The plasmids were transformed into BL21 (DE3) pLysS Escherichia coli (Novagen) and then the cells grown in luria bertani (LB) media at 37 °C until an OD600 of 0.6 was reached. The temperature was reduced to 20 °C and expression induced using 0.2 mM Isopropyl β-D-1-thiogalactopyranoside (IPTG). The cells were harvested after overnight incubation and resuspended in buffer A (20 mM HEPES pH 7.4, 100 mM NaCl, 5 mM Dithiothreitol (DTT)). The cells were lysed by sonication and the lysate cleared by centrifugation (50,000 x g, 4 °C, 1 hr). The protein was passed over 5ml of glutathione Sepharose 4B resin (GE Healthcare) at 4 °C. The resin was then washed with buffer A and the protein eluted with buffer A supplemented with 10 mM glutathione. The protein was then applied to a Superdex 200 26/60 gel filtration column (GE Healthcare) equilibrated in buffer […]
1.2 Isothermal Titration Calorimetry.
ATAD2 was exchanged into ITC buffer (50 mM HEPES pH7.4, 200 mM NaCl, 1 mM DTT).
ITC measurements were carried out at 25°C on a Microcal ITC 200 (Malvern Instruments Ltd, Malvern, UK). Compound 11 at 40mM, 2% DMSO was titrated into ATAD2 prepared in the cell at 150 μM, 2% DMSO. Titrations began with an initial 0.5 μL injection followed by 19x 2 μL injections of compound, with 120s spacing between each injection, and stirred at 1000 rpm throughout the experiment. Data were then analysed using Origin 7.0 (OriginLab Corp., Burlington, NC, USA) and fit with the one-set-of-sites model.
1.3 ATAD2-Histone displacement HTRF assay.
Compounds (dissolved to 100 mM in DMSO) were dispensed into black 384 well assay plates […]
as §2, §3, §4, §5
ATAD2N1064A was achieved using standard amine coupling on a CM5 chip surface. The surface was prepared through activation with EDC/NHS, followed by injection of 10 µg/ml of respective proteins until target level 8000 RU was reached. The surface was then quenched using 1 M Ethanolamine and washed with running buffer 10 mM HEPES, 150mM NaCl, 0.01% TWEEN20, 0.5 mM TCEP and 1% DMSO with a flow rate of […]. Compounds were injected in a dose-response manner (8 concentration points ranging from 0-200 µM) in series across the control, ATAD2, BRD4, and ATAD2-N1064A flow cells using solvent correction to account for bulk refractive index changes. The reference control channel was subtracted

## Cn1cc2c(cc1=O)C(C)(C)C(=O)N2 [Compound 7]
ATAD2 bromodomain; SPR
  ATAD2 binding by SPR, in words: bound too weakly to ATAD2 to allow Kd values to be calculated
BRD4
  Kd: > 2000 µM
[1]
  ATAD2 inhibition in HTRF, in words: some inhibition was observed at the highest concentration assayed

## CCN1C(=O)C(C)(C)c2cc(=O)n(C)cc21 [Compound 14a]
ATAD2 bromodomain
  Kd: > 200 µM
ATAD2 bromodomain; SPR, ATAD2 Kd versus BRD4 Kd
  binding constant towards ATAD2 relative to BRD4 (fold weaker): 100 fold
BRD4
  Kd: 12.7 µM
[1]
  IC50: > 1000 µM
  ATAD2 inhibition in HTRF, in words: some inhibition was observed at the highest concentration assayed

## Cn1cc2c(cc1=O)C(C)(C)C(=O)N2Cc1ccccc1 [Compound 14b]
ATAD2 bromodomain
  Kd: > 2000 µM
BRD4
  Kd: > 200 µM
[1]
  IC50: 810 ± 57 µM
  ATAD2 inhibition in HTRF, in words: sub-millimolar HTRF IC50 values
  ATAD2 LE: 0.21

## Cn1cc2c(cc1=O)C(C)(C)C(=O)N2CCc1ccccc1 [Compound 14c]
ATAD2 bromodomain
  Kd: > 200 µM
BRD4
  Kd: > 200 µM
[1]
  IC50: 868 ± 33 µM
  ATAD2 inhibition in HTRF, in words: sub-millimolar HTRF IC50 values
  ATAD2 LE: 0.19

## Cn1cc2c(cc1=O)C(C)(C)C(=O)N2CCN1CCCC1 [Compound 14d]
ATAD2 bromodomain
  Kd: > 2000 µM
BRD4
  Kd: > 200 µM
[1]
  IC50: > 1000 µM

## Cn1cc2c(cc1=O)C(C)(C)C(=O)N2CCN1CCOCC1 [Compound 14e]
ATAD2 bromodomain
  Kd: > 2000 µM
BRD4
  Kd: > 2000 µM
[1]
  IC50: > 1000 µM

## Cn1cc2c(cc1=O)C(C)(C)C(=O)N2CCO [Compound 14g]
ATAD2 bromodomain
  Kd: > 2000 µM
BRD4
  Kd: > 2000 µM
[1]
  IC50: > 1000 µM

## CC1(C)C(=O)Nc2cn(Cc3ccccc3)c(=O)cc21 [Compound 15c]
ATAD2 bromodomain
  Kd: > 200 µM
BRD4
  Kd: > 200 µM
[1]
  IC50: > 1000 µM

## CN1C(=O)C(C)(C)c2cc(=O)n(C)cc21 [Compound 17a]
ATAD2 bromodomain; SPR
  ATAD2 binding by SPR, in words: bound too weakly to ATAD2 to allow Kd values to be calculated
ATAD2 bromodomain
  Kd: > 2000 µM
BRD4; SPR
  BRD4 binding by SPR, in words: detectable binding to BRD4
BRD4
  Kd: > 200 µM
[1]
  IC50: > 1000 µM
  ATAD2 inhibition in HTRF, in words: some inhibition was observed at the highest concentration assayed

## CCCn1cc2c(cc1=O)C(C)(C)C(=O)N2C [Compound 17b]
ATAD2 bromodomain
  Kd: > 2000 µM
BRD4
  Kd: > 200 µM
[1]
  IC50: > 1000 µM

## CN1C(=O)C(C)(C)c2cc(=O)n(Cc3ccccc3)cc21 [Compound 17c]
ATAD2 bromodomain
  Kd: > 200 µM
BRD4
  Kd: 101 µM
BRD4; SPR
  selectivity between ATAD2 and BRD4, in words: bound more tightly to BRD4 than to ATAD2
[1]
  IC50: 681 ± 120 µM
  ATAD2 inhibition in HTRF, in words: sub-millimolar ATAD2 IC50 values
  ATAD2 LE: 0.21

## CN1C(=O)C(C)(C)c2cc(=O)n(CCc3ccccc3)cc21 [Compound 17d]
ATAD2 bromodomain
  Kd: > 200 µM
BRD4
  Kd: 161 µM
BRD4; SPR
  selectivity between ATAD2 and BRD4, in words: bound more tightly to BRD4 than to ATAD2
[1]
  IC50: 741 ± 74 µM
  ATAD2 inhibition in HTRF, in words: sub-millimolar ATAD2 IC50 values
  ATAD2 LE: 0.20

## COC(=O)c1ccc(Cn2cc3c(cc2=O)C(C)(C)C(=O)N3C)cc1 [Compound 17e]
ATAD2 bromodomain
  Kd: > 200 µM
BRD4
  Kd: 141 µM
[1]
  IC50: 651 ± 1 µM
  ATAD2 LE: 0.18

## CN1C(=O)C(C)(C)c2cc(=O)n(Cc3ccc(C(=O)O)cc3)cc21 [Compound 17f]
ATAD2 bromodomain
  Kd: > 200 µM
BRD4
  Kd: > 200 µM
[1]
  IC50: 533 ± 40 µM
  ATAD2 LE: 0.19

## CN1C(=O)C(C)(C)c2cc(=O)n(Cc3ccc(C#N)cc3)cc21 [Compound 17g]
ATAD2 bromodomain
  Kd: > 200 µM
BRD4
  Kd: 142 µM
[1]
  IC50: 562 ± 67 µM
  ATAD2 LE: 0.20

## CN1C(=O)C(C)(C)c2cc(=O)n(Cc3ccc(C(N)=O)cc3)cc21 [Compound 17h]
ATAD2 bromodomain
  Kd: > 200 µM
BRD4
  Kd: > 200 µM
[1]
  IC50: 680 ± 66 µM
  ATAD2 LE: 0.18

## CN1C(=O)C(C)(C)c2cc(=O)n(Cc3ccc(S(C)(=O)=O)cc3)cc21 [Compound 17i]
ATAD2 bromodomain
  Kd: > 200 µM
BRD4
  Kd: 200 µM
[1]
  IC50: 359 ± 37 µM
  ATAD2 LE: 0.19

## CN1C(=O)C(C)(C)c2cc(=O)n(Cc3ccc(Cl)cc3)cc21 [Compound 17j]
ATAD2 bromodomain
  Kd: 200 µM
BRD4
  Kd: 40 µM
[1]
  IC50: 190 ± 63 µM
  ATAD2 LE: 0.24

Source: article PMC6102691, “Identification of a novel ligand for the ATAD2 bromodomain with selectivity over BRD4 through a fragment growing approach” (Organic & Biomolecular Chemistry, 2018)
